Where two headings read alike, the source gives them in different places.
Assays:
[1] = tested on: BACE1 (Aβ40 from cells stably expressing Amyloid Precursor Protein); assay: In vitro BACE1 cell-based assay (Aβ40 in conditioned medium, HTRF)
Protocol: In Vitro BACE1 Cell-Based Assay The cell-based assay measures inhibition or reduction of Aβ40 in conditioned medium of test compound treated cells expressing amyloid precursor protein. Cells stably expressing Amyloid Precursor Protein (APP) were plated at a density of 45K cells/well in 384 well plates (Corning/BioCoat 354663). The test compounds were then added to cells in 22-point dose response concentrations with the starting concentration being 62.5 μM. The compounds were diluted from stock solutions in DMSO and the final DMSO concentration of the test compounds on cells was 0.625%. The cells were cultivated overnight at 37° C. and 5% CO2 in DMEM supplemented with 10% FBS. After 24 h of incubation with the test compounds, the conditioned media was collected and the Aβ40 levels were determined using HTRF (Homogeneous Time Resolved Fluorescence). […] The HTRF to detect Aβ40 was performed in 384 well plates (Costar 3658). The antibody pair that were used to detect Aβ 40 from cell supernatants were ConfAb40 antibody (Amgen in-house) and biotinylated 6E10 (BIOLEGEND). As an alternative to ConfAb40, a commercially available antibody, Anti-beta Amyloid 1-40 antibody [BDI350] from Abcam, Cambridge, Mass. 02139-1517 (Product code: ab20068), may be used in this assay. […] The conditioned media was incubated with above antibodies and Streptavidin Allophycocyanin Conjugate for 30-60 minutes at 23° C. The final readout was performed on Envision from PerkinElmer.

human recombinant BACE2 = human recombinant BACE2 (Homo sapiens (Human), UniProt Q9Y5Z0); assay: In vitro enzymatic BACE2 FRET assay; format: biochemical; conditions: read-out: BACE2 Enzyme IC50
Sequence of human recombinant BACE2 (Q9Y5Z0 63-518): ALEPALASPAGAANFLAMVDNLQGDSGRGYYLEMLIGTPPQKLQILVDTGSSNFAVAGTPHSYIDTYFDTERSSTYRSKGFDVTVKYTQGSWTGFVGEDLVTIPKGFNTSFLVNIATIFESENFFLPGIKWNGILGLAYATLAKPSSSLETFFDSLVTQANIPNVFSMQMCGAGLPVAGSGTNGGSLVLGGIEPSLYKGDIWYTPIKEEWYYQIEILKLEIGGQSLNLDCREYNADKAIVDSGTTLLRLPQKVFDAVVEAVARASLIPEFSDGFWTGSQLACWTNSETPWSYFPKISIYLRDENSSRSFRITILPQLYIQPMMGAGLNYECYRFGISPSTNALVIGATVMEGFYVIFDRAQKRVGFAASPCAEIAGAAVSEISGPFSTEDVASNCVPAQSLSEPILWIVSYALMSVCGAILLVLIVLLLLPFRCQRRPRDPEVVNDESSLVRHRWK
Protocol: (§1) In Vitro Enzymatic BACE1 and BACE2 FRET (Fluorescence Resonance Energy Transfer) Assays […] These recombinant proteins were further purified using Ni-NTA affinity chromatography (Qiagen). […] The assay was effectively started by the addition of FRET substrate (50 nM) and the combination was incubated for one hour. The FRET assay was terminated by the addition of tris buffer, which raised the pH to neutrality, and the fluorescence was determined. The FRET substrate was a peptide with commercially available fluorophore and quencher, on opposite sides of the BACE cleavage site. The specific FRET substrate used in this assay was made by Amgen in-house. Commercially available FRET substrates, for example, the FRET substrate offered with the BACE1 FRET Assay Kit sold by ThermoFisher Scientific (Catalog Number P2985), may be used in this assay with the appropriate modifications, which are within the purview of the ability of a person with ordinary skill in the art. Proteolytic cleavage of the FRET substrate released quenching of fluorescence (excitation 488 nm and emission 590 nm).

human recombinant BACE1 = human recombinant BACE1 (Homo sapiens (Human), UniProt P56817); assay: In vitro enzymatic BACE1 FRET assay; format: biochemical; conditions: read-out: BACE1 Enzyme IC50
Sequence of human recombinant BACE1 (P56817 46-501): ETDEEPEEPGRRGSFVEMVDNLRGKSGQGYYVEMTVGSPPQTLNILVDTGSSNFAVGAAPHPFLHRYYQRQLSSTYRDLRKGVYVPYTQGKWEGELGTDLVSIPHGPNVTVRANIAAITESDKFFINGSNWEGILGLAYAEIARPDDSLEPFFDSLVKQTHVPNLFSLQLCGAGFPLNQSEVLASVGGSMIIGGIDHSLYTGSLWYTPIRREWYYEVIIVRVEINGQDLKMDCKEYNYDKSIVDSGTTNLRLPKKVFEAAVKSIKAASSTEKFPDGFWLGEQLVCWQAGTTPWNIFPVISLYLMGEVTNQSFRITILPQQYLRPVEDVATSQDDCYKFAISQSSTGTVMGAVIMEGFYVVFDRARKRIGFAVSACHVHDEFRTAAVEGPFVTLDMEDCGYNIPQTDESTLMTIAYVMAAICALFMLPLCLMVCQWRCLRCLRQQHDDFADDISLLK
Protocol: as §1

Recombinant CatD = Recombinant CatD (Homo sapiens (Human), UniProt P07339); assay: In vitro enzymatic Cathepsin D (CatD) FRET assay; format: biochemical; conditions: read-out: Cat D Enzyme IC50
Sequence of Recombinant CatD (P07339 65-412): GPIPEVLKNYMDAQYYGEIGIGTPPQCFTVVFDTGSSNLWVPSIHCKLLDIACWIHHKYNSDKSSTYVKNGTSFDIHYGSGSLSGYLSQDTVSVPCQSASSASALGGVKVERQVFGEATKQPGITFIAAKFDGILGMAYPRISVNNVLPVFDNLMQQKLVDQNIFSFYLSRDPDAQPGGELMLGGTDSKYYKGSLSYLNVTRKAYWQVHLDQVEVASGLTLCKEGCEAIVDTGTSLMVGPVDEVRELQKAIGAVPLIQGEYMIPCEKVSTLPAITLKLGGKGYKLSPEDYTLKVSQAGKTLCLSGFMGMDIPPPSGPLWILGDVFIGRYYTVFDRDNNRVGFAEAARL
Protocol: In Vitro Enzymatic Cathepsin D (CatD) FRET Assay Recombinant CatD was expressed in CHO cells. The assay buffer for CatD was 0.05 M citrate pH 3.5, 10% DMSO final, 5 mM CHAPS. […] The assays was effectively started by the addition of different FRET substrates (20 nM for CatD) and the combination was incubated for one hour. The FRET assay was terminated with by addition of tris buffer, which raises the pH to neutrality, and the fluorescence was determined. The FRET substrate was a peptide with commercially available fluorophore and quencher, on opposite sides of the CatD cleavage site. The CatD substrate peptide sequence was based on sequence #1 of Table 1 from Gulnik et al., FEBS Lett. 413(2):379-384 (1997). Proteolytic cleavage of the FRET substrate released quenching of fluorescence (CatD excitation 500 nm and emission 580 nm). The in vitro CatD FRET assay data for each of the Examples is provided in Table 2, conducted by the first procedure described above. […] Thus, with this surprising selectivity profile, the compounds provided herein are believed to minimize, reduce or completely eliminate any risk of retinal atrophy and abnormal development of the eye and of the retinal pigmented epithelium as it relates to the normal function and activity of CatD.

[2] = 24 h, read-out: BACE1 Cell IC50 (μM)
[3] = Aβ40, 24 h incubation, read-out: BACE1 Cell IC50

NC1=N[C@@]2(c3cc(/C=C(\F)c4cnc(OCC(F)(F)C(F)F)cn4)ccc3F)CN(c3ncc(F)cn3)C[C@H]2CS1 [Example 112, (4aR,7aS)-7a-(2-fluoro-5-((Z)-2-fluoro-2-(5-(2,2,3,3-tetrafluoropropoxy)pyrazin-2-yl)vinyl)phenyl)-6-(5-fluoropyrimidin-2-yl)-4,4a,5,6,7,7a-hexahydropyrrolo[3,4-d][1,3]thiazin-2-amine]
IC50 [1, 2]: 0.02 µM | IC50 (human recombinant BACE2): 136 nM | IC50 (human recombinant BACE1): 108 nM | IC50 (Recombinant CatD): 1320 nM

NC1=N[C@@]2(c3cc(/C=C(\F)c4cnc(OCC(F)F)cn4)ccc3F)CN(c3ncc(F)cn3)C[C@H]2CS1 [Example 113, (4aR,7aS)-7a-(5-((Z)-2-(5-(2,2-difluoroethoxy)pyrazin-2-yl)-2-fluorovinyl)-2-fluorophenyl)-6-(5-fluoropyrimidin-2-yl)-4,4a,5,6,7,7a-hexahydropyrrolo[3,4-d][1,3]thiazin-2-amine]
IC50 [1, 3]: 0.00935 µM | IC50 (human recombinant BACE2): 38.1 nM | IC50 (human recombinant BACE1): 22.6 nM | IC50 (Recombinant CatD): 26600 nM

COC[C@H](C)Oc1cnc(/C(F)=C/c2ccc(F)c([C@]34CN(c5ncc(F)cn5)C[C@H]3CSC(N)=N4)c2)cn1 [Example 114, (4aR,7aS)-7a-(2-fluoro-5-((Z)-2-fluoro-2-(5-(((S)-1-methoxypropan-2-yl)oxy)pyrazin-2-yl)vinyl)phenyl)-6-(5-fluoropyrimidin-2-yl)-4,4a,5,6,7,7a-hexahydropyrrolo[3,4-d][1,3]thiazin-2-amine]
IC50 [1, 3]: 0.00257 µM | IC50 (human recombinant BACE2): 30.6 nM | IC50 (human recombinant BACE1): 8.96 nM | IC50 (Recombinant CatD): 38700 nM

C#C[C@H](C)Oc1cnc(/C(F)=C/c2ccc(F)c([C@]34CN(c5ncc(F)cn5)C[C@H]3CSC(N)=N4)c2)cn1 [Example 115, (4aR,7aS)-7a-(5-((Z)-2-(5-((S)-but-3-yn-2-yloxy)pyrazin-2-yl)-2-fluorovinyl)-2-fluorophenyl)-6-(5-fluoropyrimidin-2-yl)-4,4a,5,6,7,7a-hexahydropyrrolo[3,4-d][1,3]thiazin-2-amine]
IC50 [1, 3]: 0.000542 µM | IC50 (human recombinant BACE2): 15.3 nM | IC50 (human recombinant BACE1): 1.01 nM | IC50 (Recombinant CatD): 18900 nM

C#CCOc1cnc(/C(F)=C/c2ccc(F)c([C@]34CN(C(=O)OC(C)(C)C)C[C@H]3CSC(N)=N4)c2)cn1 [Example 116, (4aR,7aS)-tert-butyl 2-amino-7a-(2-fluoro-5-((Z)-2-fluoro-2-(5-(prop-2-yn-1-yloxy)pyrazin-2-yl)vinyl)phenyl)-4a,5,7,7a-tetrahydropyrrolo[3,4-d][1,3]thiazine-6(4H)-carboxylate]
IC50 [1, 2]: 0.00188 µM | IC50 (human recombinant BACE2): 52 nM | IC50 (human recombinant BACE1): 2.53 nM | IC50 (Recombinant CatD): 28600 nM

CC#CCOc1cnc(/C(F)=C/c2ccc(F)c([C@]34CN(c5ncc(F)cn5)C[C@H]3CSC(N)=N4)c2)cn1 [Example 117, (4aR,7aS)-7a-(5-((Z)-2-(5-(but-2-yn-1-yloxy)pyrazin-2-yl)-2-fluorovinyl)-2-fluorophenyl)-6-(5-fluoropyrimidin-2-yl)-4,4a,5,6,7,7a-hexahydropyrrolo[3,4-d][1,3]thiazin-2-amine]
IC50 [1, 3]: 0.00038 µM | IC50 (human recombinant BACE2): 2.79 nM | IC50 (human recombinant BACE1): 0.286 nM | IC50 (Recombinant CatD): 13200 nM

C#CCOc1cnc(/C(F)=C/c2ccc(F)c([C@]34CN(C(=O)CC(F)(F)F)C[C@H]3CSC(N)=N4)c2)cn1 [Example 119, 1-((4aR,7aS)-2-amino-7a-(2-fluoro-5-((Z)-2-fluoro-2-(5-(prop-2-yn-1-yloxy)pyrazin-2-yl)vinyl)phenyl)-4a,5,7,7a-tetrahydropyrrolo[3,4-d][1,3]thiazin-6(4H)-yl)-3,3,3-trifluoropropan-1-one]
IC50 [1, 3]: 0.0265 µM | IC50 (human recombinant BACE2): 510 nM | IC50 (human recombinant BACE1): 9.45 nM | IC50 (Recombinant CatD): 105000 nM

C#CCOc1cnc(/C(F)=C/c2ccc(F)c([C@]34CN(c5ncccn5)C[C@H]3CSC(N)=N4)c2)cn1 [Example 120, (4aR,7aS)-7a-(2-fluoro-5-((Z)-2-fluoro-2-(5-(prop-2-yn-1-yloxy)pyrazin-2-yl)vinyl)phenyl)-6-(pyrimidin-2-yl)-4,4a,5,6,7,7a-hexahydropyrrolo[3,4-d][1,3]thiazin-2-amine]
IC50 [1, 3]: 0.00076 µM | IC50 (human recombinant BACE2): 34 nM | IC50 (human recombinant BACE1): 0.186 nM | IC50 (Recombinant CatD): 6300 nM

C#CCOc1cnc(/C(F)=C/c2ccc(F)c([C@]34CN(C(=O)OC)C[C@H]3CSC(N)=N4)c2)cn1 [Example 121, (4aR,7aS)-methyl 2-amino-7a-(2-fluoro-5-((Z)-2-fluoro-2-(5-(prop-2-yn-1-yloxy)pyrazin-2-yl)vinyl)phenyl)-4a,5,7,7a-tetrahydropyrrolo[3,4-d][1,3]thiazine-6(4H)-carboxylate]
IC50 [1, 2]: 0.00679 µM | IC50 (human recombinant BACE2): 258 nM | IC50 (human recombinant BACE1): 1.59 nM | IC50 (Recombinant CatD): 47900 nM

C#CCOc1cnc(/C(F)=C/c2ccc(F)c([C@]34CN(C(=O)CC)C[C@H]3CSC(N)=N4)c2)cn1 [Example 122, 1-((4aR,7aS)-2-amino-7a-(2-fluoro-5-((Z)-2-fluoro-2-(5-(prop-2-yn-1-yloxy)pyrazin-2-yl)vinyl)phenyl)-4a,5,7,7a-tetrahydropyrrolo[3,4-d][1,3]thiazin-6(4H)-yl)propan-1-one]
IC50 [1, 3]: 0.0086 µM | IC50 (human recombinant BACE2): 353 nM | IC50 (human recombinant BACE1): 2.36 nM | IC50 (Recombinant CatD): 87900 nM

C#CCOc1cnc(/C(F)=C/c2ccc(F)c([C@]34CN(C(=O)OCC)C[C@H]3CSC(N)=N4)c2)cn1 [Example 123, (4aR,7aS)-ethyl 2-amino-7a-(2-fluoro-5-((Z)-2-fluoro-2-(5-(prop-2-yn-1-yloxy)pyrazin-2-yl)vinyl)phenyl)-4a,5,7,7a-tetrahydropyrrolo[3,4-d][1,3]thiazine-6(4H)-carboxylate]
IC50 [1, 2]: 0.00478 µM | IC50 (human recombinant BACE2): 214 nM | IC50 (human recombinant BACE1): 4.5 nM | IC50 (Recombinant CatD): 36500 nM

C#CCOc1cnc(/C(F)=C/c2ccc(F)c([C@]34CN(C(=O)OC(C)C)C[C@H]3CSC(N)=N4)c2)cn1 [Example 124, (4aR,7aS)-isopropyl 2-amino-7a-(2-fluoro-5-((Z)-2-fluoro-2-(5-(prop-2-yn-1-yloxy)pyrazin-2-yl)vinyl)phenyl)-4a,5,7,7a-tetrahydropyrrolo[3,4-d][1,3]thiazine-6(4H)-carboxylate]
IC50 [1, 2]: 0.00269 µM | IC50 (human recombinant BACE2): 92.2 nM | IC50 (human recombinant BACE1): 2.62 nM | IC50 (Recombinant CatD): 23800 nM

N#Cc1ccc(/C(F)=C/c2ccc(F)c([C@@]34CO[C@@H](C(F)(F)F)[C@@H]3CSC(N)=N4)c2)nc1 [Example 125, 6-((Z)-2-(3-((4aR,5R,7aR)-2-amino-5-(trifluoromethyl)-4a,5,7,7a-tetrahydro-4H-furo[3,4-d][1,3]thiazin-7a-yl)-4-fluorophenyl)-1-fluorovinyl)nicotinonitrile]
IC50 [1, 3]: 1.39 µM | IC50 (human recombinant BACE2): 18000 nM | IC50 (human recombinant BACE1): 2540 nM | IC50 (Recombinant CatD): 30600 nM

C#CCOc1cnc(/C(F)=C/c2ccc(F)c([C@]34CO[C@H](C(F)(F)F)[C@H]3CSC(N)=N4)c2)cn1 [Example 127, (4aS,5S,7aS)-7a-(2-fluoro-5-((Z)-2-fluoro-2-(5-(prop-2-ynyloxy)pyrazin-2-yl)vinyl)phenyl)-5-(trifluoromethyl)-4a,5,7,7a-tetrahydro-4H-furo[3,4-d][1,3]thiazin-2-amine]
IC50 [1, 2]: 0.0243 µM | IC50 (human recombinant BACE2): 2900 nM | IC50 (human recombinant BACE1): 103 nM | IC50 (Recombinant CatD): 160000 nM

Reference: patent US11548903B2, “Bicyclic thiazine and oxazine derivatives as beta-secretase inhibitors and methods of use” (AMGEN INC., priority 2016, dated 2023)
